In ChEMBL document CHEMBL1157284, “Role of glutamate and dopamine receptors in the psychopharmacological profile of the indole alkaloid psychollatine” (2006):
The source made the active and inactive calls. The rule behind the calls is not given here.

Columns and labels:
Mus musculus [1] = experiment: Protective effect against amphetamine-induced lethality in mouse at 4 mg/kg, ip administered 30 mins prior to amphetamine challenge measured after 24 hrs; format: functional, organism-based; parameters: dose 4 mg/kg
Mus musculus [2] = experiment: Anticonvulsant activity against NMDA-induced seizures in mouse assessed as seizure latency at 0.3 mg/kg, ip administered 30 mins prior to NMDA challenge; format: functional; settings: route intraperitoneal
Mus musculus [3] = experiment: Inhibition of apomorphine-induced climbing behavior in mouse at 0.2 mg/kg, ip administered 30 mins prior to apomorphine challenge; format: functional, organism-based; parameters: dose 0.2 mg/kg
Mus musculus [4] = experiment: Decrease in spontaneous locomotor activity in mouse at 7.5 mg/kg; format: functional, organism-based; parameters: dose 7.5 mg/kg
Mus musculus [5] = experiment: Protective effect against amphetamine-induced lethality in mouse at 30 mg/kg, ip administered 30 mins prior to amphetamine challenge measured after 24 hrs; format: functional, organism-based; parameters: dose 30 mg/kg
Mus musculus [6] = experiment: Decrease in spontaneous locomotor activity in mouse at 10 mg/kg; format: functional, organism-based; parameters: dose 10 mg/kg
Mus musculus [7] = experiment: Antipsychotic activity against MK-801-induced hyperlocomotion in mouse at 100 mg/kg administered 30 mins prior to MK-801 challenge measured after 30 mins; format: functional, organism-based; parameters: dose 100 mg/kg
Mus musculus [8] = experiment: Anticonvulsant activity against NMDA-induced seizures in mouse assessed as seizure latency at 50 mg/kg, ip administered 30 mins prior to NMDA challenge; format: functional; settings: route intraperitoneal
Mus musculus [9] = experiment: Protective effect against amphetamine-induced lethality in mouse at 3 mg/kg, ip administered 30 mins prior to amphetamine challenge measured after 24 hrs; format: functional, organism-based; parameters: dose 3 mg/kg
Mus musculus [10] = experiment: Decrease in spontaneous locomotor activity in mouse at 100 mg/kg; format: functional, organism-based; parameters: dose 100 mg/kg
Mus musculus [11] = experiment: Inhibition of apomorphine-induced climbing behavior in mouse at 10 mg/kg, ip administered 30 mins prior to apomorphine challenge; format: functional, organism-based; parameters: dose 10 mg/kg
Mus musculus [12] = experiment: Antipsychotic activity against MK-801-induced hyperlocomotion in mouse at 7.5 mg/kg administered 30 mins prior to MK-801 challenge measured after 30 mins; format: functional, organism-based; parameters: dose 7.5 mg/kg
Mus musculus [13] = experiment: Protective effect against amphetamine-induced lethality in mouse at 100 mg/kg, ip administered 30 mins prior to amphetamine challenge measured after 24 hrs; format: functional, organism-based; parameters: dose 100 mg/kg
Mus musculus [14] = experiment: Antipsychotic activity against MK-801-induced hyperlocomotion in mouse at 10 mg/kg administered 30 mins prior to MK-801 challenge measured after 30 mins; format: functional, organism-based; parameters: dose 10 mg/kg
Mus musculus [15] = experiment: Anticonvulsant activity against NMDA-induced seizures in mouse assessed as seizure latency at 75 mg/kg, ip administered 30 mins prior to NMDA challenge; format: functional; settings: route intraperitoneal
Mus musculus [16] = experiment: Anticonvulsant activity against NMDA-induced seizures in mouse assessed as seizure latency at 100 mg/kg, ip administered 30 mins prior to NMDA challenge; format: functional; settings: route intraperitoneal
Mus musculus [17] = experiment: Protective effect against amphetamine-induced lethality in mouse at 10 mg/kg, ip administered 30 mins prior to amphetamine challenge measured after 24 hrs; format: functional, organism-based; parameters: dose 10 mg/kg

SMILES: CN(C)CCCN1c2ccccc2Sc2ccc(Cl)cc21
- Activity (Mus musculus [1]): Active

SMILES: CN1C(=O)CN=C(c2ccccc2)c2cc(Cl)ccc21
- Activity (Mus musculus [1]): inactive

SMILES: C[C@]12N[C@H](Cc3ccccc31)c1ccccc12.O=C(O)/C=C\C(=O)O [DIZOCILPINE MALEATE]
- Activity (Mus musculus [2]): 360 s
- Activity (Mus musculus [3]): Active

SMILES: COC(=O)C1=CO[C@@H](O[C@H]2O[C@H](CO)[C@@H](O)[C@H](O)[C@H]2O)[C@@H]2C([C@@H]3NCCc4c3[nH]c3ccccc43)=CC[C@H]12 [PSYCHOLLATINE]
- Activity (Mus musculus [4]): inactive
- Activity (Mus musculus [5]): inactive
- Activity (Mus musculus [6]): inactive
- Activity (Mus musculus [7]): Active
- Activity (Mus musculus [8]): 850 s
- Activity (Mus musculus [9]): Active
- Activity (Mus musculus [10]): Active
- Activity (Mus musculus [11]): Active
- Activity (Mus musculus [12]): Active
- Activity (Mus musculus [13]): inactive
- Activity (Mus musculus [14]): Active
- Activity (Mus musculus [15]): 1020 s
- Activity (Mus musculus [16]): 857.14 s
- Activity (Mus musculus [17]): Active
